Source: PubChem BioAssay (NCI)
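Five compound concentrations were applied to cells in 96-well plates for 48 hours; endpoints were derived by simple linear interpolation of the resulting dose-response curve. The concentration for 50% growth inhibition is given as GI50. TGI: total growth inhibition.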

Columns and labels:
Experiment in all cases: NCI anticancer screen, dose series, 48 h
NCI-H23 lung = tested on: NCI-H23 lung
NCI-H460 lung = tested on: NCI-H460 lung
NCI-H522 lung = tested on: NCI-H522 lung
NCI/ADR-RES ovarian = tested on: NCI/ADR-RES ovarian
OVCAR-3 ovarian = tested on: OVCAR-3 ovarian
OVCAR-4 ovarian = tested on: OVCAR-4 ovarian
OVCAR-5 ovarian = tested on: OVCAR-5 ovarian
OVCAR-8 ovarian = tested on: OVCAR-8 ovarian
PC-3 prostate = tested on: PC-3 prostate
RPMI-8226 leukemia = tested on: RPMI-8226 leukemia
RXF 393 renal = tested on: RXF 393 renal
SF-268 CNS = tested on: SF-268 CNS
SF-295 CNS = tested on: SF-295 CNS
SF-539 CNS = tested on: SF-539 CNS
SK-MEL-2 melanoma = tested on: SK-MEL-2 melanoma
SK-MEL-28 melanoma = tested on: SK-MEL-28 melanoma
SK-MEL-5 melanoma = tested on: SK-MEL-5 melanoma
SK-OV-3 ovarian = tested on: SK-OV-3 ovarian
SN12C renal = tested on: SN12C renal
SNB-19 CNS = tested on: SNB-19 CNS
SNB-75 CNS = tested on: SNB-75 CNS
SR leukemia = tested on: SR leukemia
SW-620 colon = tested on: SW-620 colon
T-47D breast = tested on: T-47D breast
TK-10 renal = tested on: TK-10 renal
U251 CNS = tested on: U251 CNS
UACC-257 melanoma = tested on: UACC-257 melanoma
UACC-62 melanoma = tested on: UACC-62 melanoma
UO-31 renal = tested on: UO-31 renal

`CCCN(CCC)c1ccc(/C=N/NC(=O)c2cccnc2)c(Cl)c1` gave a GI50 (NCI-H23 lung) of 14.1 µM, a TGI (NCI-H23 lung) of 45.4 µM and a GI50 (NCI-H460 lung) of 3.63 µM. For the same compound, the TGI (NCI-H460 lung) was 17.2 µM, the GI50 (NCI-H522 lung) was 6.64 µM and the TGI (NCI-H522 lung) was 23.3 µM. It also gave a GI50 (NCI/ADR-RES ovarian) of 5.78 µM, a TGI (NCI/ADR-RES ovarian) of 48.4 µM and a GI50 (OVCAR-3 ovarian) of 2.93 µM. It also gave a TGI (OVCAR-3 ovarian) of 9.29 µM, a GI50 (OVCAR-4 ovarian) of 2.32 µM and a TGI (OVCAR-4 ovarian) of 35.7 µM. The GI50 (OVCAR-5 ovarian) was 1.22 µM, the TGI (OVCAR-5 ovarian) was 4.73 µM and the GI50 (OVCAR-8 ovarian) was 18.1 µM. The TGI (OVCAR-8 ovarian) was 53.7 µM, the GI50 (PC-3 prostate) was 14.1 µM and the TGI (PC-3 prostate) was over 81.3 µM. The GI50 (RPMI-8226 leukemia) was 15.7 µM, the TGI (RPMI-8226 leukemia) was 69.9 µM and the GI50 (RXF 393 renal) was 11.5 µM. It also gave a TGI (RXF 393 renal) of 25.3 µM, a GI50 (SF-268 CNS) of 15.5 µM and a TGI (SF-268 CNS) of 38.9 µM. For the same compound, the GI50 (SF-295 CNS) was 3.39 µM, the TGI (SF-295 CNS) was 16.7 µM and the GI50 (SF-539 CNS) was 11.6 µM. For the same compound, the TGI (SF-539 CNS) was 26.5 µM, the GI50 (SK-MEL-2 melanoma) was 14.2 µM and the TGI (SK-MEL-2 melanoma) was 30.4 µM. It also gave a GI50 (SK-MEL-28 melanoma) of 11.9 µM, a TGI (SK-MEL-28 melanoma) of 31.9 µM and a GI50 (SK-MEL-5 melanoma) of 6.09 µM. It also gave a TGI (SK-MEL-5 melanoma) of 19 µM, a GI50 (SK-OV-3 ovarian) of 13.9 µM and a TGI (SK-OV-3 ovarian) of 45.5 µM. It also gave a GI50 (SN12C renal) of 14.1 µM, a TGI (SN12C renal) of 34.3 µM and a GI50 (SNB-19 CNS) of 16.6 µM. It also gave a TGI (SNB-19 CNS) of over 100 µM, a GI50 (SNB-75 CNS) of 11.4 µM and a TGI (SNB-75 CNS) of 39.9 µM. The GI50 (SR leukemia) was 3.41 µM, the TGI (SR leukemia) was 98.6 µM and the GI50 (SW-620 colon) was 8.07 µM. It also gave a TGI (SW-620 colon) of 28.6 µM, a GI50 (T-47D breast) of 1.07 µM and a TGI (T-47D breast) of 13.9 µM. The GI50 (TK-10 renal) was 0.5 µM, the TGI (TK-10 renal) was 3.15 µM and the GI50 (U251 CNS) was 4.78 µM. It also gave a TGI (U251 CNS) of 20.6 µM, a GI50 (UACC-257 melanoma) of 0.816 µM and a TGI (UACC-257 melanoma) of 2.96 µM. It also gave a GI50 (UACC-62 melanoma) of 0.875 µM, a TGI (UACC-62 melanoma) of 4.6 µM and a GI50 (UO-31 renal) of 14.3 µM. It also gave a TGI (UO-31 renal) of 38.2 µM.
